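Each compound was tested at five concentrations against cells in 96-well plates for 48 hours. The concentration for 50% growth inhibition is given as GI50. TGI: concentration producing complete growth inhibition.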
Key:
Test in all cases: NCI-60 cell line screen, 48 h; in the data active means GI50 below about 0.43 µM; inactive means the rest
HOP-62 NSCLC = test system: HOP-62 NSCLC
K-562 leukemia = test system: K-562 leukemia
HS 578T breast = test system: HS 578T breast
NCI-H226 lung = test system: NCI-H226 lung
ACHN renal = test system: ACHN renal
COLO 205 colon = test system: COLO 205 colon
SK-MEL-28 melanoma = test system: SK-MEL-28 melanoma
MALME-3M melanoma = test system: MALME-3M melanoma
U251 CNS = test system: U251 CNS
NCI-H460 lung = test system: NCI-H460 lung
OVCAR-8 ovarian = test system: OVCAR-8 ovarian
A498 renal = test system: A498 renal
SNB-19 CNS = test system: SNB-19 CNS
KM12 colon = test system: KM12 colon
UACC-62 melanoma = test system: UACC-62 melanoma
IGROV1 ovarian = test system: IGROV1 ovarian
MOLT-4 leukemia = test system: MOLT-4 leukemia
EKVX NSCLC = test system: EKVX NSCLC
CAKI-1 renal = test system: CAKI-1 renal
NCI/ADR-RES ovarian = test system: NCI/ADR-RES ovarian
LOX IMVI melanoma = test system: LOX IMVI melanoma
OVCAR-4 ovarian = test system: OVCAR-4 ovarian
NCI-H522 lung = test system: NCI-H522 lung
RPMI-8226 leukemia = test system: RPMI-8226 leukemia
MCF7 breast = test system: MCF7 breast
HT29 colon = test system: HT29 colon
UO-31 renal = test system: UO-31 renal
T-47D breast = test system: T-47D breast
SF-539 CNS = test system: SF-539 CNS
SF-268 CNS = test system: SF-268 CNS
MDA-MB-231 breast = test system: MDA-MB-231 breast
BT-549 breast = test system: BT-549 breast
M14 melanoma = test system: M14 melanoma
DU-145 prostate = test system: DU-145 prostate
SK-OV-3 ovarian = test system: SK-OV-3 ovarian
A549 NSCLC = test system: A549 NSCLC
OVCAR-3 ovarian = test system: OVCAR-3 ovarian
PC-3 prostate = test system: PC-3 prostate
SK-MEL-5 melanoma = test system: SK-MEL-5 melanoma
UACC-257 melanoma = test system: UACC-257 melanoma
CCRF-CEM leukemia = test system: CCRF-CEM leukemia
NCI-H23 lung = test system: NCI-H23 lung
SR leukemia = test system: SR leukemia
OVCAR-5 ovarian = test system: OVCAR-5 ovarian
SN12C renal = test system: SN12C renal
TK-10 renal = test system: TK-10 renal
HCT-116 colon = test system: HCT-116 colon
SF-295 CNS = test system: SF-295 CNS
786-0 renal = test system: 786-0 renal
HL-60(TB) leukemia = test system: HL-60(TB) leukemia
SNB-75 CNS = test system: SNB-75 CNS
HCT-15 colon = test system: HCT-15 colon
MDA-MB-435 = test system: MDA-MB-435
SK-MEL-2 melanoma = test system: SK-MEL-2 melanoma

O=C(N/N=C(\CN1CCN(c2cc3[nH]cc(C(=O)O)c(=O)c3cc2F)CC1)c1ccc(Cl)cc1)c1ccncc1
42.8 µM: TGI (HCT-15 colon)
43.3 µM: TGI (HL-60(TB) leukemia)
49.4 µM: TGI (MDA-MB-435)
> 100 µM: TGI (HOP-62 NSCLC) | TGI (K-562 leukemia) | TGI (COLO 205 colon) | TGI (SK-MEL-28 melanoma) | TGI (U251 CNS) | TGI (A498 renal) | TGI (SNB-19 CNS) | TGI (KM12 colon) | TGI (EKVX NSCLC) | TGI (OVCAR-4 ovarian) | TGI (HT29 colon) | TGI (T-47D breast) | TGI (BT-549 breast) | TGI (DU-145 prostate) | TGI (SK-OV-3 ovarian) | TGI (CCRF-CEM leukemia) | TGI (OVCAR-5 ovarian) | TGI (TK-10 renal) | TGI (HCT-116 colon) | TGI (786-0 renal) | TGI (SNB-75 CNS)
65.5 µM: TGI (A549 NSCLC)
5.61 µM: TGI (CAKI-1 renal)
52.9 µM: TGI (NCI-H522 lung)
31.6 µM: TGI (SK-MEL-5 melanoma)
55.4 µM: TGI (SR leukemia)
52.6 µM: TGI (MOLT-4 leukemia)
46.1 µM: TGI (MDA-MB-231 breast)
42.6 µM: TGI (ACHN renal)
79.5 µM: TGI (M14 melanoma)
58 µM: TGI (MALME-3M melanoma)
43 µM: TGI (RPMI-8226 leukemia)
19.9 µM: TGI (OVCAR-3 ovarian)
52.1 µM: TGI (SF-295 CNS)
61.9 µM: TGI (UACC-62 melanoma)
26.9 µM: TGI (IGROV1 ovarian)
99.2 µM: TGI (HS 578T breast)
74.4 µM: TGI (SK-MEL-2 melanoma)
47.4 µM: TGI (OVCAR-8 ovarian)
87.4 µM: TGI (SF-539 CNS)
81.2 µM: TGI (NCI-H23 lung)
89.9 µM: TGI (SF-268 CNS)
80.5 µM: TGI (NCI-H226 lung)
52.4 µM: TGI (PC-3 prostate)
33.4 µM: TGI (LOX IMVI melanoma)
49 µM: TGI (UACC-257 melanoma)
67.6 µM: TGI (NCI-H460 lung)
66.9 µM: TGI (MCF7 breast)
41.8 µM: TGI (UO-31 renal)
66.3 µM: TGI (NCI/ADR-RES ovarian)
61.8 µM: TGI (SN12C renal)
inactive: GI50 (HOP-62 NSCLC) 39.4 µM | GI50 (K-562 leukemia) 26.9 µM | GI50 (HS 578T breast) 29.1 µM | GI50 (NCI-H226 lung) 23.1 µM | GI50 (ACHN renal) 18.4 µM | GI50 (COLO 205 colon) 78 µM | GI50 (SK-MEL-28 melanoma) > 100 µM | GI50 (MALME-3M melanoma) 18.6 µM | GI50 (U251 CNS) 33.5 µM | GI50 (NCI-H460 lung) 22.7 µM | GI50 (OVCAR-8 ovarian) 21.4 µM | GI50 (A498 renal) 23.3 µM | GI50 (SNB-19 CNS) 76.9 µM | GI50 (KM12 colon) 30.6 µM | GI50 (UACC-62 melanoma) 25.6 µM | GI50 (IGROV1 ovarian) 3.32 µM | GI50 (MOLT-4 leukemia) 22.8 µM | GI50 (EKVX NSCLC) 38 µM | GI50 (CAKI-1 renal) 1.96 µM | GI50 (NCI/ADR-RES ovarian) 28.4 µM | GI50 (LOX IMVI melanoma) 16.8 µM | GI50 (OVCAR-4 ovarian) 39.8 µM | GI50 (NCI-H522 lung) 22.7 µM | GI50 (RPMI-8226 leukemia) 19 µM | GI50 (MCF7 breast) 21 µM | GI50 (HT29 colon) 37 µM | GI50 (UO-31 renal) 18.7 µM | GI50 (T-47D breast) 42.2 µM | GI50 (SF-539 CNS) 28.6 µM | GI50 (SF-268 CNS) 25.8 µM | GI50 (MDA-MB-231 breast) 20.2 µM | GI50 (BT-549 breast) 33.6 µM | GI50 (M14 melanoma) 32.3 µM | GI50 (DU-145 prostate) 36 µM | GI50 (SK-OV-3 ovarian) 78.6 µM | GI50 (A549 NSCLC) 22.3 µM | GI50 (OVCAR-3 ovarian) 2.89 µM | GI50 (PC-3 prostate) 22.7 µM | GI50 (SK-MEL-5 melanoma) 16.4 µM | GI50 (UACC-257 melanoma) 23.2 µM | GI50 (CCRF-CEM leukemia) 22.5 µM | GI50 (NCI-H23 lung) 30.8 µM | GI50 (SR leukemia) 18.2 µM | GI50 (OVCAR-5 ovarian) 50.9 µM | GI50 (SN12C renal) 24.8 µM | GI50 (TK-10 renal) 43 µM | GI50 (HCT-116 colon) 37.5 µM | GI50 (SF-295 CNS) 21 µM | GI50 (786-0 renal) 39.9 µM | GI50 (HL-60(TB) leukemia) 19.4 µM | GI50 (SNB-75 CNS) 61.6 µM | GI50 (HCT-15 colon) 21.1 µM | GI50 (MDA-MB-435) 19.4 µM | GI50 (SK-MEL-2 melanoma) 30.7 µM

Reference: PubChem BioAssay (NCI)
